Usually EC50 stands for the concentration at which the effect is half-maximal.

For assay [1], the system named is phosphorylation of AKT (Ser473) in MDA-MB-468 tumor cells. The assay is described as follows: Inhibition of phosphorylation of AKT in PTEN deficient tumor cell line MDA-MB-468 (MSD Ser473-AKT). Format: cell-based. Particulars: Homo sapiens, 0.5 h; MDA-MB-468 breast cancer cells, 30 minutes compound treatment, Ser473-pAKT normalized to total AKT. As for the experimental part:
Compounds were evaluated for their ability to inhibit downstream phosphorylation of AKT in MDA-MB-468 tumor cells. Breast cancer cells were plated, incubated for approximately 16-20 hours and then treated with compound for 30 minutes. Final DMSO concentration on all cells was 0.15%. The cells were washed with Tris buffer and lysed in MesoScale Discovery (MSD) lysis buffer containing protease and phosphatase inhibitors (included in MSD kit). MSD Ser473-AKT duplex plates (Cat #MS6000) were used according to the manufacturer's instructions and plates were read on a SECTOR™ Imager 6000 using MSD Workbench software. For analysis of the Ser473-pAKT concentration response curves, the data was normalized using the corresponding total AKT value (sum of pAKT and AKT signal) and plotted as the percent of the DMSO-treated control values. The data was fit in Graphpad Prism version 4 for Windows (Graphpad Software, San Diego, Calif.).

The next assay relates to MDA-MB-468 cells. The assay is described as follows: Cell growth inhibition in PTEN-deficient cell line MDA-MB-468 (anchorage independent, Alamar Blue). The assay is classed as cell-based. Particulars: Homo sapiens, 144 h, MDA-MB-468, anchorage independent conditions, 6 days incubation, read-out: Prolif EC50 (nM) MDA-MB-468. As for the experimental part: PTEN deficient tumor cell lines (MDA-MB-468) were cultured generally according to instructions supplied by cell culture supplier American Type Culture Collection, Manassas, Va., with 10% fetal bovine serum at 5% CO2 and 37° C. Cells were seeded into either a T-75 or a T-175 flask 3-4 days prior to 96-well assay plating such that the flasks were approximately 70-80% confluent of the time of harvest. Cells were harvested using 0.25% trypsin-EDTA (Invitrogen #25200056). Trypan Blue exclusion staining was used to determine cell number.
Viable cells were plated in clear, flat bottom 96-well plates (BD #353075) under anchorage independent conditions at 2,000-10,000 cells per well depending on the cell line. To generate anchorage independent growth conditions, a 5% agar stock solution in water was made and autoclaved to melt and sterilize. From the 5% agar solution, a 0.6% agar/media+10% fetal bovine serum (FBS) solution was made to generate a bottom agar layer in the plates to prevent cell attachment. Seventy five microliters per well of the 0.6% agar-media solution was added to the plates. After solidification, a cell solution of 266,870 to 1, 334,022 cells (depending on the cell line) in 10 ml of 0.3% agar/media+10% FBS was made and 75 μl of the cell/media/agar suspension was added to the plates. After the cell layer solidified, 50 μl of media+10% FBS was added to the top of the cells. A 0.3% Brij 35 (Sigma B4184) solution in media+10% FBS was added to column 12 as a background subtraction control. The cells were incubated overnight at 5% CO2 and 37° C. The next day one plate of cells was processed at the time of compound addition to quantify the starting number of cells (T=0 or T0).
To generate the compound titration plates, 15 μl of a 2 mM or 20 μl of a 20 mM solution of the compound of example 31 was diluted in clear bottom polypropylene 96-well plate (BD #351190) using a 10 point, 3-fold titration or a 20 point 2-fold titration, respectively. Three hundred microliters of media was added to the compound dilutions. Ten microliters per well of the serial dilutions was added to the cells and the plates incubated for 6 days at 5% CO2 and 37° C. The final concentration of DMSO in all wells was 0.15% and the highest final concentration of the compound of example 31 was 3.7 μM or 30.7 μM.
Following the 6-day incubation, 20 μl of Alamar Blue (Invitrogen #DAL1100) was added to the cells, incubated at 5% CO2 and 37° C. for 6 hours and the plates read on a Spectramax (Gemini EM) at 530 nm (excitation) and 590 nm (emission) with the auto cut-off disabled. For analysis of cell growth inhibition dose response curves, the data was plotted as the percent of the DMSO-treated control samples (DMSO samples set to 100%). The cellular response was determined for compounds and control compounds by fitting the concentration response with a 4 parameter curve fit using XLfit software and determining the concentration that inhibits 50% of the Ymax-Ymin window (EC50). The EC50 is the midpoint of active compound effect window (between Ymax plateau and Ymin plateau of compound) and represents the concentration of the compound of example 31 where 50% of its maximal effect is observed. Values from wells containing 0.3% Brij 35 (under anchorage independent conditions) were subtracted from all samples for background correction. The compounds listed in Table 3 were tested generally according to the assays described herein. […]

The next assay has as its target T1, PI3Kβ (Homo sapiens, UniProt P42338).
T1 construct: made in house
The assay is described as follows: HTRF in vitro profiling assay for PI3K inhibition (beta isoform). The assay is classed as biochemical. To be noted: 200 pM enzyme, 100 uM ATP, 10 uM PIP2, 150 mM NaCl, corrected pIC50, single run or average of two or more runs; for IC50: read-out: PI3K b pIC50 (converted). The text has this: The PI3-Kinase profiling assays were developed to measure the compound-dependent inhibition of the alpha, beta, delta, and gamma isoforms of PI3Kin an in vitro catalytic assay. This assay was developed and optimized from a kit produced by Upstate (Millipore catalog #33-017). Briefly, this procedure utilizes a pre-formed HTRF (Homogeneous Time-Resolved Fluorescence energy transfer) complex between four binding partners: 1) biotinylated PIP3, 2) GST tagged pleckstrin homology (PH) domain, 3) Europium labeled anti-GST monoclonal antibody, and 4) Streptavidin-Allophycocyanin (APC). The native PIP3 produced by PI 3-Kinase activity displaces biotin-PIP3 from the PH domain, resulting in the dissociation of the HTRF complex and a decrease in the fluorescence signal. The format of this assay is the same for all 4 isoforms of PI3K; the differences lie in the concentration of enzyme used to achieve the most robust signal. The alpha and delta assays are run at 400 pM enzyme; the beta assay is at 200 pM enzyme and the gamma assay is run at 1 nM enzyme. In addition, the alpha, beta and delta assays are run with 150 mM NaCl while the gamma assay is run in the absence of NaCl. The ATP concentration is 100 uM in the alpha, beta, and delta assays and 15 uM ATP in the gamma assay. All reactions are run at 10 uM PIP2
Compounds were serially diluted (3-fold in 100% DMSO) across a 384-well polypropylene mother plate from column 1 to column 12 and column 13 to column 24, to yield 11 concentrations for each test compound. Columns 6 and 18 contain only DMSO. Once titrations were made, 0.054 was transferred to a 384-well low-volume assay plate (Greiner 784076). This assay plate contained three pharmacological controls (known PI3K inhibitors) and 3 assay controls: (1) Enzyme without inhibitor; (2) Buffer minus enzyme, and (3) Buffer minus enzyme plus native PIP3. DMSO was stamped into all wells of columns 6 and 18. PIP3 was added at 40 μM in 1× Reaction buffer (1 μL of 200 μM PIP3) to alternating rows of column 18 (wells 18 B, D, F, H, J, L, N, P). The no-enzyme control reactions were run in wells 18 A, C, E, G, I, K, M, O (0.14 of 100% DMSO).
The PI3-Kinase profiling assay was optimized using the HTRF kit provided by Upstate (Millipore). The assay kit contained seven reagents: 1) 4× Reaction Buffer; 2) native PIP2 (substrate); 3) Stop A (EDTA); 4) Stop B (Biotin-PIP3); 5) Detection Mix A (Streptavidin-APC); 6) Detection Mix B (Eu-labeled Anti-GST plus GST-tagged PH-domain); 7) Detection Mix C (KF). In addition, the following items were obtained or purchased: PI3Kinase (prepared by GSK BR&AD), dithiothreitol (Sigma, D-5545), Adenosine-5′-triphosphate (ATP, Teknova cat. #A0220), native PIP3 (1,2-dioctanoyl-sn-glycero-3-[phosphoinositil-3,4,5-triphosphate]tetraammonium salt (Avanti polar lipids, 850186P), DMSO (Sigma, 472301).
PI3Kinase Reaction Buffer was prepared by diluting the stock 1:4 with de-ionized water. Freshly prepared DTT was added at a final concentration of 5 mM on the day of use. Enzyme addition and compound pre-incubation were initiated by the addition of 2.5 μL of PI3K (at twice its final concentration) in 1× reaction buffer to all wells using a Multidrop Combi. Plates were incubated at room temperature for 15 minutes. Reactions were initiated by addition of 2.5 μL of 2× substrate solution (PIP2 and ATP in 1× reaction buffer) using a Multidrop Combi. Plates were incubated at room temperature for one hour. Reactions were quenched by the addition of 2.5 μL of stop solution (Stop A and Stop B pre-mixed at a ratio of 5:1, respectively) to all wells using the Multidrop Combi. […]
(In TR-FRET formats the signal depends on donor and acceptor labels being close together.)

T1 sequence (P42338 whole entry): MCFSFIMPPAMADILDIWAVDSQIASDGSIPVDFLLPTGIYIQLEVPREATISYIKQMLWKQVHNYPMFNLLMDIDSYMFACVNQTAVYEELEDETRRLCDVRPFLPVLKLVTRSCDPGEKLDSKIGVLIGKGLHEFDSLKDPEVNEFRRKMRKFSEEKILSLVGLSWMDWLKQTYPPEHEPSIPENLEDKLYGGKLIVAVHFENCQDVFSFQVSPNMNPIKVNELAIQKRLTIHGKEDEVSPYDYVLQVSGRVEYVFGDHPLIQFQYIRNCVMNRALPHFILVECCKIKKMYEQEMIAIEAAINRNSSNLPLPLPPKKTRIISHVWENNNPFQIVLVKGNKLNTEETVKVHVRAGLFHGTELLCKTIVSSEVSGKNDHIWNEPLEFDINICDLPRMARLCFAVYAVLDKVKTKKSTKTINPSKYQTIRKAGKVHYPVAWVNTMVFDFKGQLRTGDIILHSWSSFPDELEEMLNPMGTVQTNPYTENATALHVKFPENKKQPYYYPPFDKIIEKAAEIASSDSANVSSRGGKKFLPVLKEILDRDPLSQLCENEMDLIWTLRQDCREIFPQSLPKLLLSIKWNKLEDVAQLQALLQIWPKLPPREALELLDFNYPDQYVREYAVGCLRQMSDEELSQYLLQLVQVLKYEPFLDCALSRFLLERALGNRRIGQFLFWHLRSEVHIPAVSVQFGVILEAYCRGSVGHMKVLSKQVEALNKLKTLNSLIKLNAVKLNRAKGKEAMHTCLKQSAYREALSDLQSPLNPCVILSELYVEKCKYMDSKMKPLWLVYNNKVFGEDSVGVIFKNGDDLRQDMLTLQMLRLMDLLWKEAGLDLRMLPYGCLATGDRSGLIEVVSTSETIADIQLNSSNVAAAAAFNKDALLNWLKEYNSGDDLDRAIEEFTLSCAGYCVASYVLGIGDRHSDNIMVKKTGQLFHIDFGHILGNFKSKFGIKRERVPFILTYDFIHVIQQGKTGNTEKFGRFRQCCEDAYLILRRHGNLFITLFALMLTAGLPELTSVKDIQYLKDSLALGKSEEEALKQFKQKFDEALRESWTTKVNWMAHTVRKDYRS
T1 sequence (P27986 whole entry partner): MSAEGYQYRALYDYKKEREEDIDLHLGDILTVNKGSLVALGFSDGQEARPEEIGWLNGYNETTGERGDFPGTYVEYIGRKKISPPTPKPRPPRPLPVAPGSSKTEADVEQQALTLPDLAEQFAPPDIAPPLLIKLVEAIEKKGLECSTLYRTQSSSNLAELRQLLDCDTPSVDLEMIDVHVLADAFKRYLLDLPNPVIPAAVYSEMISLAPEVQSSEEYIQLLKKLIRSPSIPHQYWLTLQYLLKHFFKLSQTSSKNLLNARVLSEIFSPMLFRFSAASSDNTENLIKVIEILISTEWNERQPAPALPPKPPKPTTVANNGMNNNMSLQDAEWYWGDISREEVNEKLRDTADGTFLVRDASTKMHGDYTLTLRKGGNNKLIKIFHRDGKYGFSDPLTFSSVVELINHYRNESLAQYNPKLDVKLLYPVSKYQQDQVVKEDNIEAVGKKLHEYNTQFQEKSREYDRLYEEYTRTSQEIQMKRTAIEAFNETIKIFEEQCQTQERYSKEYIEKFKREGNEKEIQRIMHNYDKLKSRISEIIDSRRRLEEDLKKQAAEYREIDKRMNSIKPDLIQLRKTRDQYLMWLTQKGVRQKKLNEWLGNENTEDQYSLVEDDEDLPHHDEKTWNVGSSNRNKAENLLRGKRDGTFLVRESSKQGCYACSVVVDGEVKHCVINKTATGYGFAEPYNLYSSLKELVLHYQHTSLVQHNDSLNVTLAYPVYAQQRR

In assay [1], `Cc1c(Cl)cccc1Cn1c(C)nc2c(C(=O)O)cc(N3CCOCC3)nc21` [Example 5, 3-(3-chloro-2-methylbenzyl)-2-methyl-5-morpholino-3H-imidazo[4,5-b]pyridine-7-carboxylic acid] yielded an IC50 of 15.9 nM. Further, the EC50 in the assay on MDA-MB-468 cells worked out at 18.1 nM. In addition, at PI3Kβ, the “PI3K b pIC50” value worked out at 8.8.

As to `Cc1c(Cn2cnc3c(O)cc(N4CCOCC4)nc32)cccc1C(F)(F)F` [Example 1, 3-(2-methyl-3-(trifluoromethyl)benzyl)-5-morpholino-3H-imidazo[4,5-b]pyridin-7-ol], the IC50 in assay [1] was 477 nM; on PI3Kβ it was 1.58 nM.

The molecule `Cc1c(Cn2c(C)nc3c(C(=O)O)cc(N4CCOCC4)nc32)cccc1C(F)(F)F` [Example 3, 2-methyl-3-(2-methyl-3-(trifluoromethyl)benzyl)-5-morpholino-3H-imidazo[4,5-b]pyridine-7-carboxylic acid] had an IC50 in assay [1] of 436 nM. Also, the concentration giving a half-maximal response (EC50) in the assay on MDA-MB-468 cells was 41 nM. For the same molecule, on PI3Kβ, the “PI3K b pIC50” value amounted to 8.3.

As to `Cc1nc2ccc(N3CCOCC3)nc2n1Cc1cccc2ccccc12` [Example 7, 4-(2-methyl-3-(naphthalen-1-ylmethyl)-3H-imidazo[4,5-b]pyridin-5-yl)morpholine], the IC50 in assay [1] is 126 nM; at PI3Kβ, 6.31 nM.

Regarding `Cc1nc2ccc(N3CCOCC3)nc2n1Cc1cccc(Cl)c1Cl` [Example 8, 4-(3-(2,3-dichlorobenzyl)-2-methyl-3H-imidazo[4,5-b]pyridin-5-yl)morpholine], the IC50 in assay [1] is 406 nM; at PI3Kβ it was 39.8 nM. The EC50 with MDA-MB-468 cells came to 1500 nM.

`Cc1nc2c(C(=O)O)cc(N3CCOCC3)nc2n1Cc1cccc(Cl)c1Cl` [Example 4, 3-(2,3-dichlorobenzyl)-2-methyl-5-morpholino-3H-imidazo[4,5-b]pyridine-7-carboxylic acid]: the IC50 in assay [1] turned out to be 41.4 nM. The EC50 with MDA-MB-468 cells was 153 nM. For the same molecule, the “PI3K b pIC50” value at PI3Kβ is on record as 8.3.

`Cc1nc2c(C(=O)O)cc(N3CCOCC3)nc2n1Cc1cccc2ccccc12` [Example 6, 2-methyl-5-morpholino-3-(naphthalen-1-ylmethyl)-3H-imidazo[4,5-b]pyridine-7-carboxylic acid]: the IC50 is 75.3 nM in assay [1] and 1.58 nM at PI3Kβ. Further, the EC50 in the assay on MDA-MB-468 cells amounted to 66.5 nM.

Take `Oc1cc(N2CCOCC2)nc2c1ncn2Cc1cccc2ccccc12` [Example 2, 5-morpholino-3-(naphthalen-1-ylmethyl)-3H-imidazo[4,5-b]pyridin-7-ol]: the IC50 in assay [1] was 578 nM; on PI3Kβ, 3.16 nM.

Source of the values: patent US8906910B2, “Imidazopyridine derivatives as PI3 kinase” (GlaxoSmithKline LLC, priority 2011, dated 2014).
